Test results taken from patent US20090062388A1, “Use of acetyl L-carnitine for the preparation of a medication for the preventive therapy for pain” (Sigma-Tau Industrie Farmaceutiche Riunite S.p.A., priority 2001, published 2009).
Like-named read-outs stand apart in the source and are kept apart here.

Experiments:
[1] = tested on: Male Swiss Webster mice; assay: Abdominal constriction test (acetic acid IP); assay type: in vivo; conditions: for Number of constrictions (0.3% acetic acid) / Number of constrictions (0.6% acetic acid): 3 mg/ml in drinking water
Procedure: The second experiment was the abdominal constriction test.
The abdominal constriction test was carried out according to Koster et al. in Fed. Proc. 18: 412, 1959.
According to this test, an IP injection of 0.6% acetic acid solution is to be made 5 minutes before starting the observation, which lasted 10 minutes.
In some experiments, the percentage of acetic acid was reduced by half (0.3%).

[2] = tested on: mice; assay type: in vivo; conditions: Acetyl L-carnitine 100 mg/kg BID SC 7 days
Procedure: The analgesia induced by the acetyl L-carnitine (100 mg/kg BID, SC for 7 days) was determined in presence of some antagonists of some neurotransmission systems deeply involved in the regulation of pain threshold, and in particular the naloxone (opioid antagonist), the CGP-35348 (GABAB antagonist) and the alpha-methyl-p-tyrosine (inhibitor of the synthesis of cathecolamines).
In agreement with the standard procedures known by the person skilled in the art, the doses used for any antagonist were the minimum required to prevent the analgesia induced by morphine (7 mg/kg SC) (1, 100 e 200 mg/kg IP), baclofen (4 mg/kg SC) and amphetamine (1 mg/kg SC) (non-reported data) respectively.

[3] = tested on: M1 muscarinic receptor sub-type; assay: Hot plate: acetyl L-carnitine analgesia after anti-M1 antisense oligonucleotide ICV; assay type: in vivo, mice; conditions: Acetyl L-carnitine 100 mg/kg BID SC 7 days
Description: The observation that the analgesia induced by the acetyl L-carnitine is mediated by the M1 muscarinic receptor sub-type is confirmed by the application of the anti-sense strategy.

[4] = tested on: Male Swiss Webster mice; assay: Rota-rod test (motor coordination); assay type: in vivo
Procedure: The rota rod test was carried out by means of an apparatus consisting of a platform and a 3 cm-diameter rotating rod (16-20 r.p.m.) with a non-slipping surface.
The integrity of the animals' motor coordination was determined according to the capacity of the mice to keep their balance on the rotating rod.
At various intervals after the treatment, the parameter considered was the number of falls of the animal within a 30 second-observation (Vaught et al., Neuropharmacol., 24: 211, 1985).

[5] = tested on: Male Swiss Webster mice; assay: Sleep induction test with pentobarbital; assay type: in vivo
Procedure: In the sleep induction test with pentobarbital, the duration of the loss of the […] reflex was measured in the mice treated with pentobarbital (60 mg/kg IP).

[6] = tested on: Male Swiss Webster mice; assay: Hyperalgesia induced by NMDA (hot plate); assay type: in vivo
Procedure: This test was carried out in compliance with what described in the rats by Davies and Inturrisi in J. Pharmacol. Exp. Ther., 289: 1048-1053, 1999, but was applied to the mice by us.
According to this test, the hyperalgesia, assessed through the hot plate test, is to be induced by intrathecal administration of an NMDA solution (1.64 μg/mouse; administered around 15 minutes after the last administration of acetyl L-carnitine).
The reduction in the pain threshold, which reaches its peak 15 minutes after the injection of NMDA, disappears within 30 minutes from the administration.

[7] = pentobarbital 60 mg/kg IP, Acetyl L-carnitine 100 mg/kg BID SC 7 days, Piracetam 30 mg/kg IP

CC(=O)O[C@H](CC(=O)[O-])C[N+](C)(C)C [Acetyl L-carnitine, acetyl L-carnitine]
Number of constrictions (0.3% acetic acid) ([1]; sub-chronic treatment 7 days): 12.7 ± 3.5 | Number of constrictions (0.6% acetic acid) ([1]; sub-chronic treatment 7 days): 31.5 ± 4.0 | Number of constrictions (0.3% acetic acid) ([1]; sub-chronic treatment 14 days): 11.9 ± 2.2 | Number of constrictions (0.6% acetic acid) ([1]; sub-chronic treatment 14 days): 28.3 ± 5.1 | antinociceptive effect, abdominal constriction test ([1]; 0.6% acetic acid, 30 mg/kg IP (or SC), 18-day treatment (FIG. 3)): had no effect | antinociceptive effect, abdominal constriction test ([1]; 0.6% acetic acid, 100 mg/kg BID, SC or IP, 14 days of treatment (FIG. 1)): exerted an antinociceptive effect | antinociceptive effect, abdominal constriction test ([1]; 0.6% acetic acid, 100 mg/kg acute administration (SC or IP) or repeated for 7 days (FIG. 1)): had no effect at all | antinociceptive effect, abdominal constriction test ([1]; small concentration of acid, 30 mg/kg, 14 days (FIG. 4)): the statistic significance was obtained after 14 days | pain threshold in abdominal constriction test (0.3 and 0.6%) ([1]; solution 3 mg/ml in bottle for 7 and 14 days): no increase in the pain threshold was observed | Hot plate Licking latency ([2]; pre-treat. Alpha-M-p-T 200 mg/kg, after treatment 15 min): 22.5 ± 2.0 s | Hot plate Licking latency ([2]; pre-treat. Alpha-M-p-T 200 mg/kg, after treatment 30 min): 21.5 ± 1.7 s | Hot plate Licking latency ([2]; pre-treat. Alpha-M-p-T 200 mg/kg, after treatment 45 min): 21.6 ± 1.5^ sec | Hot plate Licking latency ([2]; pre-treat. Alpha-M-p-T 200 mg/kg, before treatment): 22.0 ± 1.3 s | Hot plate Licking latency ([2]; pre-treat. Atropine 5 mg/kg, after treatment 15 min): 11.4 ± 1.7° sec | Hot plate Licking latency ([2]; pre-treat. Atropine 5 mg/kg, after treatment 30 min): 12.6 ± 1.9° sec | Hot plate Licking latency ([2]; pre-treat. Atropine 5 mg/kg, after treatment 45 min): 12.8 ± 1.3° sec | Hot plate Licking latency ([2]; pre-treat. Atropine 5 mg/kg, before treatment): 21.2 ± 1.0^ sec | Hot plate Licking latency ([2]; pre-treat. CGP 35348 100 mg/kg, after treatment 15 min): 21.1 ± 1.2^ sec | Hot plate Licking latency ([2]; pre-treat. CGP 35348 100 mg/kg, after treatment 30 min): 21.0 ± 2.1^ sec | Hot plate Licking latency ([2]; pre-treat. CGP 35348 100 mg/kg, after treatment 45 min): 20.3 ± 1.9^ sec | Hot plate Licking latency ([2]; pre-treat. CGP 35348 100 mg/kg, before treatment): 22.1 ± 0.7 s | Hot plate Licking latency ([2]; pre-treat. HC-3 1 μg ICV, after treatment 15 min): 14.6 ± 1.3° sec | Hot plate Licking latency ([2]; pre-treat. HC-3 1 μg ICV, after treatment 30 min): 14.0 ± 1.8° sec | Hot plate Licking latency ([2]; pre-treat. HC-3 1 μg ICV, after treatment 45 min): 15.5 ± 1.9° sec | Hot plate Licking latency ([2]; pre-treat. HC-3 1 μg ICV, before treatment): 22.0 ± 1.1^ sec | Hot plate Licking latency ([2]; pre-treat. Naloxone 1 mg/kg, after treatment 15 min): 22.3 ± 1.9 s | Hot plate Licking latency ([2]; pre-treat. Naloxone 1 mg/kg, after treatment 30 min): 22.1 ± 2.0 s | Hot plate Licking latency ([2]; pre-treat. Naloxone 1 mg/kg, after treatment 45 min): 20.6 ± 1.2^ sec | Hot plate Licking latency ([2]; pre-treat. Naloxone 1 mg/kg, before treatment): 22.6 ± 0.6 s | Hot plate Licking latency ([2]; pre-treat. Pirenzepine 0.1 μg ICV, after treatment 15 min): 16.5 ± 1.8° sec | Hot plate Licking latency ([2]; pre-treat. Pirenzepine 0.1 μg ICV, after treatment 30 min): 14.3 ± 2.0° sec | Hot plate Licking latency ([2]; pre-treat. Pirenzepine 0.1 μg ICV, after treatment 45 min): 17.1 ± 1.6° sec | Hot plate Licking latency ([2]; pre-treat. Pirenzepine 0.1 μg ICV, before treatment): 21.6 ± 1.3^ sec | Hot plate Licking latency ([2]; pre-treat. S-(−)-ET-126 0.1 μg ICV, after treatment 15 min): 15.8 ± 2.2° sec | Hot plate Licking latency ([2]; pre-treat. S-(−)-ET-126 0.1 μg ICV, after treatment 30 min): 16.9 ± 2.3° sec | Hot plate Licking latency ([2]; pre-treat. S-(−)-ET-126 0.1 μg ICV, after treatment 45 min): 15.8 ± 1.8° sec | Hot plate Licking latency ([2]; pre-treat. S-(−)-ET-126 0.1 μg ICV, before treatment): 22.9 ± 1.3^ sec | Hot plate Licking latency ([2]; pre-treat. physiological solution 10 ml/kg, after treatment 15 min): 22.6 ± 1.3 s | Hot plate Licking latency ([2]; pre-treat. physiological solution 10 ml/kg, after treatment 30 min): 22.5 ± 1.3 s | Hot plate Licking latency ([2]; pre-treat. physiological solution 10 ml/kg, after treatment 45 min): 22.9 ± 1.6^ sec | Hot plate Licking latency ([2]; pre-treat. physiological solution 10 ml/kg, before treatment): 21.8 ± 1.1 s | Hot plate Licking latency ([3]; pre-treat. AODN 3 nmol ICV, 24 hours after last injection, before treatment): 13.5 ± 0.8 s | Hot plate Licking latency ([3]; pre-treat. AODN 3 nmol ICV, after treatment 15 min): 16.6 ± 1.9 s | Hot plate Licking latency ([3]; pre-treat. AODN 3 nmol ICV, after treatment 30 min): 15.8 ± 1.8 s | Hot plate Licking latency ([3]; pre-treat. AODN 3 nmol ICV, after treatment 45 min): 15.8 ± 1.5 s | Hot plate Licking latency ([3]; pre-treat. dODN 3 nmol ICV, 24 hours after last injection, before treatment): 23.6 ± 1.1 s | Hot plate Licking latency ([3]; pre-treat. dODN 3 nmol ICV, after treatment 15 min): 22.6 ± 2.3 s | Hot plate Licking latency ([3]; pre-treat. dODN 3 nmol ICV, after treatment 30 min): 21.9 ± 1.5 s | Hot plate Licking latency ([3]; pre-treat. dODN 3 nmol ICV, after treatment 45 min): 22.3 ± 1.7 s | Motor coordination (rota-rod) ([4]; 100 mg/kg BID, SC or IP for 7 and 14 days): not different from motor coordination of the control mice | ROTA-ROD No. of falls in 30 seconds ([4]; 7-day sub-chronic treatment IP 100 mg/kg BID, 15 min after treatment): 2.2 ± 0.4 | ROTA-ROD No. of falls in 30 seconds ([4]; 7-day sub-chronic treatment IP 100 mg/kg BID, 30 min after treatment): 1.5 ± 0.3 | ROTA-ROD No. of falls in 30 seconds ([4]; 7-day sub-chronic treatment IP 100 mg/kg BID, 45 min after treatment): 1.1 ± 0.3 | ROTA-ROD No. of falls in 30 seconds ([4]; 7-day sub-chronic treatment IP 100 mg/kg BID, before treatment): 3.6 ± 0.5 | ROTA-ROD No. of falls in 30 seconds ([4]; 14-day sub-chronic treatment IP 100 mg/kg BID, 15 min after treatment): 2.9 ± 0.3 | ROTA-ROD No. of falls in 30 seconds ([4]; 14-day sub-chronic treatment IP 100 mg/kg BID, 30 min after treatment): 1.7 ± 0.4 | ROTA-ROD No. of falls in 30 seconds ([4]; 14-day sub-chronic treatment IP 100 mg/kg BID, 45 min after treatment): 1.0 ± 0.3 | ROTA-ROD No. of falls in 30 seconds ([4]; 14-day sub-chronic treatment IP 100 mg/kg BID, before treatment): 3.9 ± 0.5 | effect on pentobarbital sleep duration and induction times ([5]; 100 mg/kg BID SC for 7 days, pentobarbital 60 mg/kg IP 24 hours after end of treatments): neither affected the duration of sleep nor the induction times | SLEEP Duration [5, 7]: 23.5 ± 3.4 min | SLEEP Induction time [5, 7]: 3.3 ± 2.1 min | effect on reduction in pain threshold induced by NMDA ([6]; 30 mg/kg BID, IP or SC for 7 days (FIG. 7)): not found to be active | effect on reduction in pain threshold induced by NMDA ([6]; 100 mg/kg BID, SC or IP for 7 days, NMDA 1.64 μg/mouse intrathecal (FIG. 7)): anti-nociceptive effect
